How the values were obtained:
Format in all cases: in vivo
[1] = test system: lambsquarters (Chenopodium album, CHA); assay: Pre-emerge test, lambsquarters; conditions: 250 g ai/ha, 14 days after application, rating scale 0-100 (0 no damage, 100 complete death)
Procedure, shortened: (§1)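 Greenhouse pre-emergence test in 10 cm pots of sandy loam soil mix; seeds sown one day before treatment. Compounds in acetone were track-sprayed at 187 l/ha, 8–1000 g ai/ha. Phytotoxicity rated 0–100 (0 = no damage, 100 = complete death) at 14 days after application.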

[2] = test system: field corn (Zea mays L., var. Dekalb 535, CORN); assay: Pre-emerge test, crop damage field corn; conditions: pre-emerge, 250 g ai/ha, 14 days after application, rating scale 0-100 (0 no damage, 100 complete death)
Procedure, shortened: (§2)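 Compounds are applied in acetone to freshly sown soil (planted one day earlier) at 8 g ai/ha up to 1000 g ai/ha via track sprayer. Plants are assessed at 14 days on a 0–100 injury scale.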

[3] = test system: ivyleaf morningglory (Ipomoea hederacea, IPH); assay: Pre-emerge test, ivyleaf morningglory; conditions: 250 g ai/ha, 14 days after application, rating scale 0-100 (0 no damage, 100 complete death)
Procedure, shortened: as §1

[4] = test system: green foxtail (Setaria viridis, SEV); assay: Post-emerge test, green foxtail; conditions: 250 g ai/ha, 14 days after application, rating scale 0-100 (0 no damage, 100 complete death)
Procedure, shortened: (§3)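 Each score is a 0-100 visual rating made 14 days post-spray, with 100 meaning all plants dead. Application was post-emergence at the 2-3 leaf stage, 8-1000 g ai/ha in acetone plus 0.25% v/v surfactant.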

[5] = test system: large crabgrass (Digitaria sanguinalis, DIS); assay: Pre-emerge test, large crabgrass; conditions: 250 g ai/ha, 14 days after application, rating scale 0-100 (0 no damage, 100 complete death)
Procedure, shortened: as §1

[6] = test system: field corn (Zea mays L., var. Dekalb 535, CORN); assay: Post-emerge test, crop damage field corn; conditions: post-emerge, 250 g ai/ha, 14 days after application, rating scale 0-100 (0 no damage, 100 complete death)
Procedure, shortened: as §3

[7] = test system: cocklebur (Xanthium strumariunt, XAS); assay: Post-emerge test, cocklebur; conditions: 250 g ai/ha, 14 days after application, rating scale 0-100 (0 no damage, 100 complete death)
Procedure, shortened: as §3

[8] = test system: velvetleaf (Abutilon theophrasti, ABT); assay: Post-emerge test, velvetleaf; conditions: 250 g ai/ha, 14 days after application, rating scale 0-100 (0 no damage, 100 complete death)
Procedure, shortened: as §3

[9] = test system: green foxtail (Setaria viridis, SEV); assay: Pre-emerge test, green foxtail; conditions: 250 g ai/ha, 14 days after application, rating scale 0-100 (0 no damage, 100 complete death)
Procedure, shortened: as §1

[10] = test system: common ragweed (Ambrosia artemisiifolia L., AML); assay: Post-emerge test, common ragweed; conditions: 250 g ai/ha, 14 days after application, rating scale 0-100 (0 no damage, 100 complete death)
Procedure, shortened: as §3

[11] = test system: upland rice (Oryza sp., var.Tebonnet, RICE); assay: Post-emerge test, crop damage upland rice; conditions: post-emerge, 250 g ai/ha, 14 days after application, rating scale 0-100 (0 no damage, 100 complete death)
Procedure, shortened: as §3

[12] = test system: velvetleaf (Abutilon theophrasti, ABT); assay: Pre-emerge test, velvetleaf; conditions: 250 g ai/ha, 14 days after application, rating scale 0-100 (0 no damage, 100 complete death)
Procedure, shortened: as §1

[13] = test system: johnsongrass (Sorghum halepense, SOH); assay: Pre-emerge test, johnsongrass; conditions: 250 g ai/ha, 14 days after application, rating scale 0-100 (0 no damage, 100 complete death)
Procedure, shortened: as §1

[14] = test system: sicklepod (Cassia obtusifolia, CAO); assay: Post-emerge test, sicklepod; conditions: 250 g ai/ha, 14 days after application, rating scale 0-100 (0 no damage, 100 complete death)
Procedure, shortened: as §3

[15] = test system: soybean (Glycine max L., var. Pella 86, SOY); assay: Pre-emerge test, crop damage soybean; conditions: pre-emerge, 250 g ai/ha, 14 days after application, rating scale 0-100 (0 no damage, 100 complete death)
Procedure, shortened: as §2

[16] = test system: barnyardgrass (Echinachloa crus-galli, ECC); assay: Post-emerge test, barnyardgrass; conditions: 250 g ai/ha, 14 days after application, rating scale 0-100 (0 no damage, 100 complete death)
Procedure, shortened: as §3

[17] = test system: ivyleaf morningglory (Ipomoea hederacea, IPH); assay: Post-emerge test, ivyleaf morningglory; conditions: 250 g ai/ha, 14 days after application, rating scale 0-100 (0 no damage, 100 complete death)
Procedure, shortened: as §3

[18] = test system: soybean (Glycine max L., var. Pella 86, SOY); assay: Post-emerge test, crop damage soybean; conditions: post-emerge, 250 g ai/ha, 14 days after application, rating scale 0-100 (0 no damage, 100 complete death)
Procedure, shortened: as §3

[19] = test system: sicklepod (Cassia obtusifolia, CAO); assay: Pre-emerge test, sicklepod; conditions: 250 g ai/ha, 14 days after application, rating scale 0-100 (0 no damage, 100 complete death)
Procedure, shortened: as §1

[20] = test system: large crabgrass (Digitaria sanguinalis, DIS); assay: Post-emerge test, large crabgrass; conditions: 250 g ai/ha, 14 days after application, rating scale 0-100 (0 no damage, 100 complete death)
Procedure, shortened: as §3

[21] = test system: cocklebur (Xanthium strumariunt, XAS); assay: Pre-emerge test, cocklebur; conditions: 250 g ai/ha, 14 days after application, rating scale 0-100 (0 no damage, 100 complete death)
Procedure, shortened: as §1

[22] = test system: wheat (Triticum aestivum); assay: Pre-emerge test, crop damage wheat; conditions: pre-emerge, 250 g ai/ha, 14 days after application, rating scale 0-100 (0 no damage, 100 complete death)
Procedure, shortened: as §2

[23] = test system: redroot pigweed (Amaranthus retroflexus, AMR); assay: Post-emerge test, redroot pigweed; conditions: 250 g ai/ha, 14 days after application, rating scale 0-100 (0 no damage, 100 complete death)
Procedure, shortened: as §3

[24] = test system: barnyardgrass (Echinachloa crus-galli, ECC); assay: Pre-emerge test, barnyardgrass; conditions: 250 g ai/ha, 14 days after application, rating scale 0-100 (0 no damage, 100 complete death)
Procedure, shortened: as §1

[25] = test system: redroot pigweed (Amaranthus retroflexus, AMR); assay: Pre-emerge test, redroot pigweed; conditions: 250 g ai/ha, 14 days after application, rating scale 0-100 (0 no damage, 100 complete death)
Procedure, shortened: as §1

[26] = test system: common ragweed (Ambrosia artemisiifolia L., AML); assay: Pre-emerge test, common ragweed; conditions: 250 g ai/ha, 14 days after application, rating scale 0-100 (0 no damage, 100 complete death)
Procedure, shortened: as §1

[27] = test system: wheat (Triticum aestivum); assay: Post-emerge test, crop damage wheat; conditions: post-emerge, 250 g ai/ha, 14 days after application, rating scale 0-100 (0 no damage, 100 complete death)
Procedure, shortened: as §3

[28] = test system: johnsongrass (Sorghum halepense, SOH); assay: Post-emerge test, johnsongrass; conditions: 250 g ai/ha, 14 days after application, rating scale 0-100 (0 no damage, 100 complete death)
Procedure, shortened: as §3

[29] = test system: lambsquarters (Chenopodium album, CHA); assay: Post-emerge test, lambsquarters; conditions: 250 g ai/ha, 14 days after application, rating scale 0-100 (0 no damage, 100 complete death)
Procedure, shortened: as §3

[30] = test system: upland rice (Oryza sp., var.Tebonnet, RICE); assay: Pre-emerge test, crop damage upland rice; conditions: pre-emerge, 250 g ai/ha, 14 days after application, rating scale 0-100 (0 no damage, 100 complete death)
Procedure, shortened: as §2

Row | SMILES | Pre-emerge Herbicidal Activity CHA (phytotoxicity rating) [1] | Pre-emerge crop damage CORN (phytotoxicity rating) [2] | Pre-emerge Herbicidal Activity IPH (phytotoxicity rating) [3] | Post-emerge Herbicidal Activity SEV (phytotoxicity rating) [4] | Pre-emerge Herbicidal Activity DIS (phytotoxicity rating) [5] | Post-emerge crop damage CORN (phytotoxicity rating) [6] | Post-emerge Herbicidal Activity XAS (phytotoxicity rating) [7] | Post-emerge Herbicidal Activity ABT (phytotoxicity rating) [8] | Pre-emerge Herbicidal Activity SEV (phytotoxicity rating) [9] | Post-emerge Herbicidal Activity AML (phytotoxicity rating) [10] | Post-emerge crop damage RICE (phytotoxicity rating) [11] | Pre-emerge Herbicidal Activity ABT (phytotoxicity rating) [12] | Pre-emerge Herbicidal Activity SOH (phytotoxicity rating) [13] | Post-emerge Herbicidal Activity CAO (phytotoxicity rating) [14] | Pre-emerge crop damage SOY (phytotoxicity rating) [15] | Post-emerge Herbicidal Activity ECC (phytotoxicity rating) [16] | Post-emerge Herbicidal Activity IPH (phytotoxicity rating) [17] | Post-emerge crop damage SOY (phytotoxicity rating) [18] | Pre-emerge Herbicidal Activity CAO (phytotoxicity rating) [19] | Post-emerge Herbicidal Activity DIS (phytotoxicity rating) [20] | other results
1 | CC1C(=O)N(C)c2c(-c3nn(C)c(OC(F)F)c3Cl)c(F)cc3c2N1C(=O)CO3 (stereo not drawn) [1-62] | 100 | 10 | 60 | 60 | 50 | 0 | 65 | 80 | 100 | 90 | 70 | 90 | 90 | 35 | 10 | 30 | 75 | 0 | 50 | 30 | Pre-emerge Herbicidal Activity XAS (phytotoxicity rating) [21]: 25; Pre-emerge crop damage WHEAT (phytotoxicity rating) [22]: 45; Post-emerge Herbicidal Activity AMR (phytotoxicity rating) [23]: 99; Pre-emerge Herbicidal Activity ECC (phytotoxicity rating) [24]: 90; Pre-emerge Herbicidal Activity AMR (phytotoxicity rating) [25]: 65; Pre-emerge Herbicidal Activity AML (phytotoxicity rating) [26]: 35; Post-emerge crop damage WHEAT (phytotoxicity rating) [27]: 50; Post-emerge Herbicidal Activity SOH (phytotoxicity rating) [28]: 0; Post-emerge Herbicidal Activity CHA (phytotoxicity rating) [29]: 100; Pre-emerge crop damage RICE (phytotoxicity rating) [30]: 50
2 | O=C1CN2C(=O)COc3cc(F)c(-c4ncc(C(F)(F)F)cc4Cl)c(c32)N1 [1-63] | 100 | 100 | 100 | 100 | 100 | 20 | 100 | 100 | 100 | 45 | 75 | 100 | 100 | 50 | 50 | 100 | 100 | 100 | 99 | 80 | Pre-emerge Herbicidal Activity XAS (phytotoxicity rating) [21]: 100; Pre-emerge crop damage WHEAT (phytotoxicity rating) [22]: 90; Post-emerge Herbicidal Activity AMR (phytotoxicity rating) [23]: 100; Pre-emerge Herbicidal Activity ECC (phytotoxicity rating) [24]: 100; Pre-emerge Herbicidal Activity AMR (phytotoxicity rating) [25]: 100; Pre-emerge Herbicidal Activity AML (phytotoxicity rating) [26]: 100; Post-emerge crop damage WHEAT (phytotoxicity rating) [27]: 30; Post-emerge Herbicidal Activity SOH (phytotoxicity rating) [28]: 99; Post-emerge Herbicidal Activity CHA (phytotoxicity rating) [29]: 100; Pre-emerge crop damage RICE (phytotoxicity rating) [30]: 100
3 | CC1C(=O)Nc2c(-c3ncc(C(F)(F)F)cc3Cl)c(F)cc3c2N1C(=O)CO3 (stereo not drawn) [1-64] | 100 | 100 | 100 | 100 | 100 | 5 | 100 | 100 | 100 | 95 | 0 | 100 | 100 | 85 | 99 | 100 | 100 | 100 | 100 | 40 | Pre-emerge Herbicidal Activity XAS (phytotoxicity rating) [21]: 100; Pre-emerge crop damage WHEAT (phytotoxicity rating) [22]: 90; Post-emerge Herbicidal Activity AMR (phytotoxicity rating) [23]: 100; Pre-emerge Herbicidal Activity ECC (phytotoxicity rating) [24]: 100; Pre-emerge Herbicidal Activity AMR (phytotoxicity rating) [25]: 100; Pre-emerge Herbicidal Activity AML (phytotoxicity rating) [26]: 100; Post-emerge crop damage WHEAT (phytotoxicity rating) [27]: 15; Post-emerge Herbicidal Activity SOH (phytotoxicity rating) [28]: 85; Post-emerge Herbicidal Activity CHA (phytotoxicity rating) [29]: 100; Pre-emerge crop damage RICE (phytotoxicity rating) [30]: 95
4 | CCC1C(=O)Nc2c(-c3ncc(C(F)(F)F)cc3Cl)c(F)cc3c2N1C(=O)CO3 (stereo not drawn) [1-66] | 100 | 95 | 100 | 98 | 100 | 10 | 100 | 100 | 100 | 80 | 100 | 100 | 100 | 75 | 35 | 100 | 100 | 100 | 98 | 95 | Pre-emerge Herbicidal Activity XAS (phytotoxicity rating) [21]: 50; Pre-emerge crop damage WHEAT (phytotoxicity rating) [22]: 50; Post-emerge Herbicidal Activity AMR (phytotoxicity rating) [23]: 100; Pre-emerge Herbicidal Activity ECC (phytotoxicity rating) [24]: 100; Pre-emerge Herbicidal Activity AMR (phytotoxicity rating) [25]: 100; Pre-emerge Herbicidal Activity AML (phytotoxicity rating) [26]: 100; Post-emerge crop damage WHEAT (phytotoxicity rating) [27]: 30; Post-emerge Herbicidal Activity SOH (phytotoxicity rating) [28]: 75; Post-emerge Herbicidal Activity CHA (phytotoxicity rating) [29]: 100; Pre-emerge crop damage RICE (phytotoxicity rating) [30]: 85

Source: US6770596B1, “Fused tricyclic compounds, process for their preparation, and herbicidal compositions containing them” (Ishihara Sangyo Kaisha Ltd., priority 2002, dated 2004)
